Key:
TYK2 kinase domain (JH1) = TYK2 kinase domain (JH1) (Homo sapiens (Human), UniProt P29597); assay: TYK2 Radioactive Kinase Assay; type: biochemical; settings: compound at 10 μM; ATP at 10 μM; 120 min at room temp
Experimental: (§1) Peptide substrate, [KKSRGDYMTMQIG], (20 μM) was prepared in reaction buffer (20 mM Hepes pH 7.5, 10 mM MgCl2, 1 mM EGTA, 0.02% Brij35, 0.02 mg/mL BSA, 0.1 mM […], 2 mM DTT, 1% DMSO). TYK2 (Invitrogen) kinase was added, followed by compounds in DMSO. ^33PATP was added to initiate the reaction in ATP at 10 μM. The kinase reaction was incubated for 120 min at room temp and reactions were spotted onto P81 ion exchange paper (Whatman #3698-915), and then washed extensively in 0.75% phosphoric acid, prior to reading the radioactivity counts. For JAK2 (Invitrogen) kinase assay the peptide substrate poly[Glu:Tyr](4:1), 0.2 mg/ml was used, in the reaction carried out the same as for TYK2.
(§2) The TYK2 and JAK2 radioactive kinase assay measures the percent inhibition at the TYK2 kinase domain (JH1) and the percent inhibition at the JAK2 kinase domain (JH1). Results of the assay are expressed as percent inhibition at 10 μM.

JAK2 kinase domain (JH1) = JAK2 kinase domain (JH1) (Homo sapiens (Human), UniProt O60674); assay: JAK2 Radioactive Kinase Assay; type: biochemical; settings: compound at 10 μM; ATP at 10 μM; substrate poly[Glu:Tyr](4:1)
JAK2 kinase domain (JH1), sequence (O60674 849-1124): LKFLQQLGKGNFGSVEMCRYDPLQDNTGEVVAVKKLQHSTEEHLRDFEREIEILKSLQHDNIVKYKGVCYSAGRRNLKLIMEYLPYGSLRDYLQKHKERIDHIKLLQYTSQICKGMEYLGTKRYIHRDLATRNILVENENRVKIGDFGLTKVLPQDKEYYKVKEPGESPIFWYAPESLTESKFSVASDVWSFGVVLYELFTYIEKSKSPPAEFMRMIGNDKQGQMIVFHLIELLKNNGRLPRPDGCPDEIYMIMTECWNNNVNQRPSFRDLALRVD
Experimental: as §1, §2

[1] = biological target: human TYK2 (JH2domain-pseudokinase) (Homo sapiens (Human), UniProt P29597); assay: TYK2 JH2 Domain Binding Assay (KINOMEscan); settings: 11-point 3-fold dilution, top concentration 30,000 nM, duplicate
human TYK2 (JH2domain-pseudokinase), sequence (P29597 556-888): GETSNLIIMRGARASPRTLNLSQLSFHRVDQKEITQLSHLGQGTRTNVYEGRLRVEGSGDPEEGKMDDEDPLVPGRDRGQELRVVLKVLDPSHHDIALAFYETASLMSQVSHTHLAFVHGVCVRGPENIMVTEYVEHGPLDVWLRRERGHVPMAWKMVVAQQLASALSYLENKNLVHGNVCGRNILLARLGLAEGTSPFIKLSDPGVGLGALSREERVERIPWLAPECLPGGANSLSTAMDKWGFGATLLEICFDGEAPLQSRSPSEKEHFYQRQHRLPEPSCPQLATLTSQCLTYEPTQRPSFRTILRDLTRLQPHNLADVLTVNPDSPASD
Procedure, shortened: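 Competition binding used an NFkB-DNA-tagged fusion of TYK2 JH2 (G556–D888) expressed in HEK293 extracts against an immobilised ligand, 1 h at room temperature. Bead-bound kinase was quantified by qPCR. Kd came from an 11-point 3-fold series with a 30,000 nM top concentration and 0.9% DMSO, Hill slope −1, run in duplicate.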

TYK2 kinase domain (JH1), sequence (P29597 897-1176): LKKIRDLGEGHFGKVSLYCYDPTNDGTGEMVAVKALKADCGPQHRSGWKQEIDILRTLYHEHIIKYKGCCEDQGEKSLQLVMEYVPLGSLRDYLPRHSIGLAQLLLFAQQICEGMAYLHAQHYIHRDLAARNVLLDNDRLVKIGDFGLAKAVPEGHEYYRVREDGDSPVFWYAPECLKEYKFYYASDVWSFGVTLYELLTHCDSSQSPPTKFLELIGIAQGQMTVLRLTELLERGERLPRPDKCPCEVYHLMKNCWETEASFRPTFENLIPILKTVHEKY

Row | Structure (SMILES) | inhibition at 10 µM (TYK2 kinase domain (JH1)) [%] | inhibition at 10 µM (JAK2 kinase domain (JH1)) [%] | Kd [1] [nM]
1 | CNC(=O)c1cnc(NC(=O)C2CC2)c2[nH]c(-c3ccc(N4CCCC4=O)cc3OC)cc12 [Compound I-26, 7-(cyclopropanecarboxamido)-2-(2-methoxy-4-(2-oxopyrrolidin-1-yl)phenyl)-N-methyl-1H-pyrrolo[2,3-c]pyridine-4-carboxamide] | < 50 | < 50 | < 0.2
2 | CCOc1ncc(-c2ccn(C)n2)cc1-c1cc2c(C(=O)NC)cnc(NC(=O)C3CC3)c2[nH]1 [Compound I-37, 7-(cyclopropanecarboxamido)-2-(2-ethoxy-5-(1-methyl-1H-pyrazol-3-yl)pyridin-3-yl)-N-methyl-1H-pyrrolo[2,3-c]pyridine-4-carboxamide] | < 50 | < 50 | 1 to 10
3 | CNC(=O)c1cnc(NC(=O)C2CC2)c2[nH]c(-c3cc(-c4ncco4)ccn3)cc12 [Compound I-15, 7-(cyclopropanecarboxamido)-N-methyl-2-(4-(oxazol-2-yl)pyridin-2-yl)-1H-pyrrolo[2,3-c]pyridine-4-carboxamide] | < 50 | < 50 | 0.2 to 1
4 | CNC(=O)c1cnc(NC(=O)C2CC2)c2[nH]c(-c3ccc(=O)n(C4CC4)c3)cc12 [Compound I-40, 7-(cyclopropanecarboxamido)-2-(1-cyclopropyl-6-oxo-1,6-dihydropyridin-3-yl)-N-methyl-1H-pyrrolo[2,3-c]pyridine-4-carboxamide] | < 50 | < 50 | 1 to 10
5 | CNC(=O)c1cnc(NC(=O)C2CC2)c2[nH]c(-c3cc(-n4ccc(C)n4)ccn3)cc12 [Compound I-17, 7-(cyclopropanecarboxamido)-N-methyl-2-(4-(3-methyl-1H-pyrazol-1-yl)pyridin-2-yl)-1H-pyrrolo[2,3-c]pyridine-4-carboxamide] | < 50 | < 50 | 0.2 to 1
6 | CNC(=O)c1cnc(NC(=O)C2CC2)c2[nH]c(-c3ccc(C4=NC(C)(C)CO4)cc3OC)cc12 [Compound I-9, 7-(cyclopropanecarboxamido)-2-(4-(4,4-dimethyl-4,5-dihydrooxazol-2-yl)-2-methoxyphenyl)-N-methyl-1H-pyrrolo[2,3-c]pyridine-4-carboxamide] | < 50 | < 50 | 0.2 to 1
7 | [2H]C([2H])([2H])NC(=O)c1cnc(NC(=O)C2CC2)c2[nH]c(-c3ccccc3)cc12 [Compound I-3, 7-(cyclopropanecarboxamido)-N-(methyl-d3)-2-phenyl-1H-pyrrolo[2,3-c]pyridine-4-carboxamide] | < 50 | < 50 | 0.2 to 1
8 | CNC(=O)c1cnc(NC(=O)C2CC2)c2[nH]c(-c3cccc(N4CCOCC4)c3F)cc12 [Compound I-22, 7-(cyclopropanecarboxamido)-2-(2-fluoro-3-morpholinophenyl)-N-methyl-1H-pyrrolo[2,3-c]pyridine-4-carboxamide] | < 50 | < 50 | < 0.2
9 | [2H]C([2H])([2H])NC(=O)c1cnc(NC(=O)C2CC2)c2[nH]c(-c3cccc(-c4ncn(C)n4)n3)cc12 [Compound I-35, 7-(cyclopropanecarboxamido)-N-(methyl-d3)-2-(6-(1-methyl-1H-1,2,4-triazol-3-yl)pyridin-2-yl)-1H-pyrrolo[2,3-c]pyridine-4-carboxamide] | < 50 | < 50 | 0.2 to 1
10 | CNC(=O)c1cnc(NC(=O)C2CC2)c2[nH]c(-c3cccc(-n4nccn4)c3)cc12 [Compound I-8, 2-(3-(2H-1,2,3-triazol-2-yl)phenyl)-7-(cyclopropanecarboxamido)-N-methyl-1H-pyrrolo[2,3-c]pyridine-4-carboxamide] | < 50 | < 50 | 1 to 10
11 | [2H]C([2H])([2H])NC(=O)c1cnc(NC(=O)C2CC2)c2[nH]c(-c3cccc(-c4ncn(C)n4)c3)cc12 [Compound I-6, 7-(cyclopropanecarboxamido)-N-(methyl-d3)-2-(3-(1-methyl-1H-1,2,4-triazol-3-yl)phenyl)-1H-pyrrolo[2,3-c]pyridine-4-carboxamide] | < 50 | < 50 | < 0.2
12 | CNC(=O)c1cnc(NC(=O)C2CC2)c2[nH]c(-c3ccc4cn(C5CC5)nc4c3)cc12 [Compound I-20, 7-(cyclopropanecarboxamido)-2-(2-cyclopropyl-2H-indazol-6-yl)-N-methyl-1H-pyrrolo[2,3-c]pyridine-4-carboxamide] | < 50 | < 50 | 0.2 to 1
13 | CNC(=O)c1cnc(NC(=O)C2CC2)c2[nH]c(-c3ccccc3C3(S(C)(=O)=O)CC3)cc12 [Compound I-5, 7-(cyclopropanecarboxamido)-N-methyl-2-(2-(1-(methylsulfonyl)cyclopropyl)phenyl)-1H-pyrrolo[2,3-c]pyridine-4-carboxamide] | < 50 | < 50 | 1 to 10
14 | CNC(=O)c1cnc(NC(=O)C2CC2)c2[nH]c(-c3cccc(-n4ccc(C)n4)c3)cc12 [Compound I-7, 7-(cyclopropanecarboxamido)-N-methyl-2-(3-(3-methyl-1H-pyrazol-1-yl)phenyl)-1H-pyrrolo[2,3-c]pyridine-4-carboxamide] | < 50 | < 50 | 0.2 to 1
15 | CNC(=O)c1cnc(NC(=O)C2CC2)c2[nH]c(-c3cccc(-c4nc(C)n(C)n4)c3)cc12 [Compound I-28, 7-(cyclopropanecarboxamido)-2-(3-(1,5-dimethyl-1H-1,2,4-triazol-3-yl)phenyl)-N-methyl-1H-pyrrolo[2,3-c]pyridine-4-carboxamide] | < 50 | < 50 | 0.2 to 1
16 | CNC(=O)c1cnc(NC(=O)C2CC2)c2[nH]c(-c3cccc(C4=NC(C)(C)CS4)c3)cc12 [Compound I-11, 7-(cyclopropanecarboxamido)-2-(3-(4,4-dimethyl-4,5-dihydrothiazol-2-yl)phenyl)-N-methyl-1H-pyrrolo[2,3-c]pyridine-4-carboxamide] | < 50 | < 50 | 0.2 to 1
17 | CNC(=O)c1cnc(NC(=O)C2CC2)c2[nH]c(-c3cccnc3OC3CC3)cc12 [Compound I-34, 7-(cyclopropanecarboxamido)-2-(2-cyclopropoxypyridin-3-yl)-N-methyl-1H-pyrrolo[2,3-c]pyridine-4-carboxamide] | < 50 | < 50 | < 0.2
18 | CNC(=O)c1cnc(NC(=O)C2CC2)c2[nH]c(-c3cc(-c4nccs4)cnc3OC3CC3)cc12 [Compound I-39, 7-(cyclopropanecarboxamido)-2-(2-cyclopropoxy-5-(thiazol-2-yl)pyridin-3-yl)-N-methyl-1H-pyrrolo[2,3-c]pyridine-4-carboxamide] | < 50 | < 50 | 1 to 10
19 | CNC(=O)c1cnc(NC(=O)C2CC2)c2[nH]c(-c3cccc(-c4ncn(C)n4)n3)cc12 [Compound I-32, 7-(cyclopropanecarboxamido)-N-methyl-2-(6-(1-methyl-1H-1,2,4-triazol-3-yl)pyridin-2-yl)-1H-pyrrolo[2,3-c]pyridine-4-carboxamide] | < 50 | < 50 | 0.2 to 1

— patent US11053241B2, “TYK2 inhibitors and uses thereof” (Nimbus Lakshmi, Inc., priority 2018, dated 2021)
